Experimental data reported in patent US20240401000A1, “SUSPENSION-BASED 3D CULTURE METHOD FOR ORGANOIDS” (BRIGHAM YOUNG UNIVERSITY, priority 2021, published 2024).

How the values were obtained:
[1] = tested on: human fluorescent lung organoid (hFLO); test: Bleomycin-induced fibrosis in hFLO with fasudil antifibrotic trial (histochemistry, immunohistochemistry, live confocal imaging); type: cell-based; conditions: for lumen area: bleomycin 20 μg mL−1 for 3 days from day 7, then 10 μM fasudil for 4 days, day 14; for collagen deposition (Masson staining) / pro-fibrotic expression (αSMA, fibronectin, PDGFRα; H-DAB): bleomycin 20 μg mL−1 for 3 days, then 10 μM fasudil for 4 days
Protocol: Cell aggregates were grown as described above for 7 days, after which the cell aggregates were treated with 20 μg mL 1 bleomycin (13877, Cayman Chemical Company, MI, USA, stock solution diluted in either PBS or DMSO). Media was changed after 3 days of culture with bleomycin (i.e., at day 10). At day 10, the organoids were weaned off the bleomycin insult and then treated with either 10 μM fasudil (B3523, ApexBio, TX, USA) or with DMSO (control, vehicle used for fasudil). The cultures were kept in treatment media for 4 more days with media changing every two days. Cell aggregates and media were collected and fixed as described above.
Histologically stained samples were imaged and processed with ImageJ software. First, images were converted to an 8-bit greyscale, after which a threshold was applied. The image was then processed five times iteratively with the dilate function to converging boundary cells. […] The “count particles” function was used to measure lumen characteristics. Data was processed in Microsoft Excel, lumen under the size of 200 μm2 were excluded in all analysis except the calculations of total lumen area and lumen percent arca.
The ratios of collagen to tissue in organoids were determined by analyzing images of Masson-Trichrome stained sections. These images were separated into red, blue, and green components using ImageJ using color deconvolution function. For the Masson staining, areas of the blue and red image channels were determined by thresholding and collagen deposition was determined as the ratio of blue area to red area (collagen to tissue). Intensity histograms were created using the ImageJ histogram function on the selected red area, and average pixel intensity was calculated from the histogram output in Microsoft Excel. For H-DAB, the target protein is the brown channel and the hematoxylin is the blue-purple channel.
There is a critical need for viable organotypic models for the human lung to model diseases including pulmonary fibrosis (PF). In order to fill this need, we induced fibrosis using bleomycin in our hFLO model. Bleomycin-induced PF is an extensively used animal-based model for fibrosis, despite significant cellular and molecular differences between mouse and human lungs. Moreover, therapeutics against PF are limited due to lack of organotypic lung models adapted for drug testing and screening. […] This therapy, however, has not yet been validated in a human lung model. Here, we grew hFLO for 7 days and induced fibrosis using 20 μg mL−1 bleomycin for 3 days, after which aggregates were treated with 10 μM fasudil, a ROCK inhibitor for 4 days to observe possible changes in fibrosis (FIG. 5A). […] In PF, there is an observed alveolar and bronchiolar epithelial cell death and fibroblast abundance. We observed that with bleomycin induction, there was a decrease in the epithelial A549 with an increase in fibroblast HFL1 population ([…]).

[2] = tested on: secreted factors from hFLO aggregates; test: Cytokine array of media from hFLO treatment groups; type: cell-based, human; conditions: media at day 14
Protocol: The organoid media from the three treatment groups were collected at day 14. The levels of cytokines secreted to the media were immediately evaluated using the Human Cytokine Array C1000 (AAH-CYT-1000-8, Ray Biotech, GA, USA) with minor modifications. Briefly, the membranes were blocked at room temperature for 30 minutes using the blocking buffer. The media from the organoids were transferred onto the membranes and incubated with gentle rocking overnight at 4° C. After washing, the membranes were incubated with the biotinylated antibody cocktail overnight at 4° C. After further washes, the membranes were probed with Streptavidin-CF680R (29072, Biotium, CA, USA 1:1000) for 1 hour at RT. The membranes were imaged using an Odyssey CLx imager (LI-COR, Cambridge, UK) at high resolution and a wavelength of 700 nm. The exported images of the membranes were quantified using gel analysis plugin on FIJI distribution of ImageJ (open source) under the GNU General Public License.
To further confirm the fibrosis in hFLO-bleomycin fibrotic model and the anti-fibrotic effects of fasudil, we collected culture media from the aggregates and performed a cytokine array using 120 common inflammatory factors.

[3] = tested on: A549, EAhy and HFL1 triculture aggregates; test: 3D triculture suspension culture with soluble ECM (self-patterning, growth, fibronectin); type: cell-based, human; conditions: 100 μg mL−1 soluble ECM; day 14
Protocol: To calculate the seeding ratios for each cell line, literature search led us to lung alveolar cell ratios to be around 24% epithelial, 30% endothelial, and 37% interstitial. By this, we simplified the seeding ratio to be roughly 1:2:2 (A549 epithelial: EAhy endothelial: HFL1 fibroblast). For suspension-based cultures, a seeding ratio of 1.0×104 to 1.0×10^5 total cells per aggregate was used and was divided to cach of the cell line using the ratio above. 100-200 μL of mixed cell suspension in 3D media or ECM supplemented 3D media were seeded into cach well of the 96-well ULA plate. […]
Triculture cell aggregates were grown for 14 days using either traditional force aggregation (FA) or as supplemented with 300 μg mL^−1 Matrigel®. […] Cell aggregate sections were then selected using the freeform selection tool and measured for area. […]
We then engineered a 3D triculture to model the lung alveolus and the morphological changes accompanying soluble ECM concentration. […] Cell seeding ratios were followed based on endogenous human lung cell composition which we determined to be roughly 1:2:2 (epithelial: interstitial: vascular) (Table S1).

[4] = of 120 common inflammatory factors
[5] = bleomycin 20 μg mL−1, live 3D confocal volumetric analysis

Row | Molecule | lumen area [1] | collagen deposition (Masson staining) [1] | pro-fibrotic expression (αSMA, fibronectin, PDGFRα; H-DAB) [1] | secretion of pro-angiogenic factors including FGF2 and VEGFA [2] | secretion of pro-inflammatory factors (CX3CL1, AREG, CCL3, IL4, IL2, AXL, EGF, IL6 among others) [2] | number of factors significantly changed (Fasudil vs Bleomycin) [2, 4] [factors] | number of factors significantly changed between control and fasudil treatment [2, 4] [factors] | epithelial A549 population [1, 5] | fibroblast HFL1 population [1, 5] | number of factors significantly increased (Control vs Bleomycin) [2, 4] [factors] | aggregate structure (H&E) [3]
1 | O=S(=O)(c1cccc2cnccc12)N1CCCNCC1 [fasudil] | rescued | decreased intensity | lowered | decreased | significantly decreased | 56 | 36 | – | – | – | –
2 | bleomycin | decreased lumen area | increased collagen deposition | increased | increased secretion | increase | – | – | decrease | increase | 68 | –
3 | collagen I: rat tail collagen I (Sigma-Aldrich), used as soluble ECM supplement | – | – | – | – | – | – | – | – | – | – | predominantly compact cell clusters
